Biological target: T1, γ-secretase (Homo sapiens, UniProt P49768)
T1 construct: endogenous in cells; host or cells: HeLa cells
Assay: γ-secretase luciferase reporter assay (Gal4VP16 inducer constructs)
Type: cell-based
Parameters: dose or concentration left out as unconfirmed
Details: lysed after 16 hrs; for nuclear translocation of the inducer fragment (luciferase activity), APP: APP-Gal4VP16 inducer in Hela cells; for nuclear translocation of the inducer fragment (luciferase activity), Notch: NotchΔE-Gal4VP16 inducer in Hela cells
From the text: In wild-type hippocampal neurons, TLN localizes to the plasmalemma whereas in 30% of PS1−/− neurons, TLN additionally accumulates in large somatic structures, the identity of which remained elusive (Annaert et al., 2001). […] Therefore we tested whether TLN is a γ-secretase substrate. In 15 day old PS1−/− hippocampal cultures we could not detect any TLN C-terminal fragment (CTF) as apposed to APP-CTF that readily accumulate. Even upon Semliki Forest Virus (SFV)-induced overexpression, no TLN-CTF was detected. Since no putative mechanism of shedding of the TLN ectodomain is known, we generated a TLNΔE that could serve as a potential γ-secretase substrate. No intracellular domain fragments were however detected indicating the absence of γ-secretase cleavage. […] Release of a potential intracellular domain of TLN can be measured via the activity of luciferase. […] To investigate whether the TLN transmembrane domain could be a γ-secretase substrate in the context of the APP protein, we swapped the transmembrane regions of TLN and APP to create an APP/TLNTMR-chimaera. Even in this case no activity could be detected. Therefore we conclude that TLN is most likely not a γ-secretase substratum.
pSFV constructs encoding human APP, murine TLN and TLNΔE have been described (Annaert et al., 2001). APP and NotchΔE were cloned into the EcoRV site in front of the Gal4VP16 sequence in pIPAdApt vector. A construct encoding 10 aa of the ectodomain, the transmembrane and cytosolic domains of TLN was obtained by PCR and ligated in pGEMT containing the TLN signal peptide (SP). SP-TLNΔE was next cloned into pIPAdApt and GAL 4VP16 was inserted resulting in a pIPAdApt-SP-TLNΔE-Gal4-VP16 construct. For the APP/TLNTMR chimaera, the coding region for APP-TMR was replaced by a PCR fragment encoding the TLN-TMR. Luciferase assay. Hela cells were transfected with 200 ng pFRluc plasmid (UAS-responsive luciferase construct, Stratagene) and 200 ng inducer plasmid using Fugene ([…]) and after 16 hrs lysed and assayed (Victor2, PerkinElmer).

| SMILES | nuclear translocation of the inducer fragment (luciferase activity), APP | nuclear translocation of the inducer fragment (luciferase activity), Notch |
| --- | --- | --- |
| C[C@H](NC(=O)Cc1cc(F)cc(F)c1)C(=O)N[C@H](C(=O)OC(C)(C)C)c1ccccc1 [DAPT] | strongly inhibited | strongly inhibited |
| CC(C)C[C@H](NC(=O)[C@H](Cc1ccccc1)C[C@@H](O)[C@H](Cc1ccccc1)NC(=O)OC(C)(C)C)C(=O)N[C@@H](Cc1ccccc1)C(N)=O [L685,458] | strongly inhibited | strongly inhibited |
